Test results: paper PMC8861431, “Tissue Pharmacokinetic Properties and Bystander Potential of Hypoxia-Activated Prodrug CP-506 by Agent-Based Modelling” (Frontiers in Pharmacology, 2022)
Several values for one entry are separate records, joined by “and”; a condition that tells them apart may be missing. Equal entries are not always repeated. Where two headings read alike, the source gives them in different places.

Experiments:
[1] = Media stability studies (stirred medium without serum, 37°C); type: physicochemical
Procedure: The stability of each compound was determined in stirred medium (without serum) maintained under aerobic conditions by the constant supply of a humidified gas mixture comprised of 21% O2, 5% CO2 with balance N2. Vials were spiked with 100 µM of the relevant compound, and samples were collected using a positive displacement pipettor for up to 3 h thereafter. The collected samples were then treated with two-volumes of ice-cold acetonitrile containing 2 µM of the relevant deuterated (D8) internal standard and stored at −80°C until LC-MS/MS analysis.
The LC system for tandem MS consisted of an Agilent 1200 autosampler (4°C) and binary pump, a 3.0 × 50 mm, 1.8-micron Zorbax SB-C18 column (Agilent; PN: 827975-302) and 2.1 × 7 mm guard column (Alltech, IL) maintained at 35°C, at a pressure of <400 bar and flow rate of 0.3 ml/min. The mobile phase comprised a gradient of 0.01% formic acid in 80% acetonitrile - 20% water, v/v (solvent A), and 0.01% formic acid in water (solvent B). Initial mobile phase composition was 20% solvent A and 80% solvent B, increasing to 60% A (0–3 min) then 80% A (3–5.45 min), returning to initial conditions (5.5–6 min). Post-run time was 1 min, and the total run time was […]. Mass spectrometric detection was carried out using an Agilent 6410 triple quadrupole mass spectrometer equipped with a multimode ionization (MMI) source. The mass spectrometer was operated in electrospray positive ionization mode using multiple reaction monitoring (MRM), with Q1 & Q3 set to unit resolution ([…]). The electrospray ionization parameters, optimized for the parent molecular ion ([M+H]+) abundance were: drying gas temperature 325°C, vaporiser temperature 150°C, drying gas flow 5 L/min, nebuliser pressure 50 psi, capillary voltage 1.8 kV, Delta EMV 300 V. Ultra-pure nitrogen was used as collision gas. The divert valve feature of the Agilent 6410 triple quadrupole mass spectrometer was utilised to prevent the eluate from entering the ionisation source chamber during the first 0.5 min of each run. For CP-506 samples, positively charged ions representing the [M+H]+ for CP-506 and CP-506-D8 were collisionally dissociated to form specific product ions which were monitored in MS2 (unit resolution). The MRM transition, ionization mode, collision energy, dwell time, fragmentor voltage and retention time for all compounds is provided in Supplementary Table S2. Agilent MassHunter software (v.4.04.00) was used for data acquisition and chromatographic peak integration.

[2] = system: PORko-G and POR-R spheroids / spheroid co-cultures; experiment: Spheroid clonogenic survival assay (with spheroid ABM fit); type: cell-based, human; settings: for k d S: kill probability rate constant in spheroid cultures: fitted by spheroid ABM to clonogenic survival under anoxia, set to zero for the prodrug, same kd assumed for metabolites
Procedure: Spheroid cultures were established by seeding 3 x 10^3 cells with 100 µl medium into ultra-low attachment, round bottom 96-well plates (Corning Inc, Corning, NY). Plates were briefly centrifuged (200 g, 5 min) to facilitate cell aggregation and grown in a standard incubator (37°C, 21% O2, 5% CO2) for 4 days before experiments. The culture medium was then aspirated, and the established spheroids taken into a H2/Pd-catalyst anaerobic chamber. Spheroids were washed three times with anoxia pre-equilibrated medium and left to settle for 1 h in a humidified 37°C incubator. Spheroids were removed from the anaerobic chamber after a 4 h drug exposure and washed three times with fresh culture medium. The growth of representative spheroids was monitored for 10 days using a published method of image analysis for volume determination ([Mao et al., 2018]). The remainder were enzymatically dissociated and plated at serial dilutions in 6-well plates containing 2 µM puromycin or 1 mg/ml geneticin for positive selection of POR-R and PORko-G cells, respectively. Colonies were visualized after 10 days of drug-free proliferation by staining with methylene blue (2 g/L in 50% aqueous ethanol) for 30 min. The number of colonies with at least 50 cells was manually counted to determine the plating efficiency. The surviving fraction was determined as the ratio of the plating efficiency of treated cells to that of the controls.
The spheroid ABM is described in further detail elsewhere ([Hong et al., 2018b]; [Mao et al., 2018]). The model employs two 3D grids and two solvers, a coarse grid represents the culture medium and is embedded with a much finer grid that represents the spheroid in a small cubic region at the bottom of the well. The spheroid grows in a specified volume and depth of unstirred medium containing dissolved oxygen. The geometry of the model is lattice-based, in which cells occupy cubic sites on a regular 3D lattice and grow in volume at a rate dependent on the local oxygen concentration. Autonomous cell mobility and cell-cell forces are not simulated. Cell motion occurs only as a result of cell division. Cells divide when the volume reaches a pre-set value (Vdiv) and the resultant daughter cell occupies an adjacent empty lattice site. […] The oxygen concentration at the air-medium boundary is defined by the gas phase of the culture environment. […] When oxygen concentrations fall below a critical level (<0.15 µM), cells are tagged to die and cytolysis occurs after a further 24 h leading to the central necrosis observed in in vitro spheroids. Spheroid ABM simulations were performed on a desktop Windows PC (Intel core I7 processor) from a Qt (Qt Company, https://www.qt.io/) graphical user interface passing parameters to a DLL built with Fortran95. The solution of the coarser grid provides the boundary conditions for the solution of the intracellular and extracellular concentrations within the spheroid lattice. Oxygen and drug are transported by diffusion from the boundary into the spheroid interior through the intercellular space in parallel with their uptake into cells. The model allows specification of two mass transfer constants to characterise the uptake (Kin) and efflux (Kout) rates for each compound. Prodrug metabolism is restricted to the intracellular compartment and dependent on the local oxygen concentration. […]

[3] = 37°C, aerobic, medium without serum/cells, 100 µM, read-out: Half-life (T1/2) in stirred medium
[4] = buffer, Table 1, stirred culture medium at 37°C, read-out: Half-life: time required to reduce the concentration of drug to half of its initial value (converted)

SMILES | half-life at 100 µM [1, 3] [min] | half-life at 100 µM [1, 4] [min] | k d S: kill probability rate constant in spheroid cultures [2] | Time without loss of mass balance in stirred medium ([1]; 37°C, aerobic, stirred medium) | Differential in anoxic sensitivity between PORko-G and POR-R spheroids ([2]; clonogenic endpoint, 4 h exposure, anoxia) | Half-life (T1/2) in stirred medium ([1]; 37°C, aerobic, medium without serum/cells, 100 µM) [min] | Fold longer half-life than CP-506H or CP-506M ([1]; stirred medium, Figure 3B) [fold]
CCN1CCN(C(=O)c2cc(N(CCBr)CCOS(C)(=O)=O)c(S(C)(=O)=O)cc2N)CC1 [CP-506M, 2-((4-amino-5-(4-ethylpiperazine-1-carbonyl)-2-(methylsulfonyl)phenyl)(2-bromoethyl)amino)ethyl methanesulfonate] | 7.6 | 7.8 | 0.0256 |  |  |  | 
CCN1CCN(C(=O)c2cc(N(CCBr)CCOS(C)(=O)=O)c(S(C)(=O)=O)cc2[N+](=O)[O-])CC1 [CP-506, 2-[(2-bromoethyl)-5-[(4-ethyl-1-piperazinyl)carbonyl]-2-(methylsulfonyl)-4-nitroanilino]ethyl methanesulfonate] |  | 1800 | 0 | over 360 min | 22 fold and 20 fold |  | 
CCN1CCN(C(=O)c2cc(N(CCCl)CCCl)c(S(C)(=O)=O)cc2N)CC1 [CP-506M-Cl2, (2-Amino-5-(bis(2-chloroethyl)amino)-4-(methylsulfonyl)phenyl)(4-ethylpiperazin-1-yl)methanone] | 271 | 271 | 0.0256 |  |  | 271 | ≥ 10
CCN1CCN(C(=O)c2cc(N(CCBr)CCOS(C)(=O)=O)c(S(C)(=O)=O)cc2NO)CC1 [CP-506H, 2-((2-bromoethyl)(5-(4-ethylpiperazine-1-carbonyl)-4-(hydroxyamino)-2-(methylsulfonyl)phenyl)amino)ethyl methanesulfonate] | 10.5 | 10.8 | 0.0256 |  |  |  | 
